According to the supplement of paper PMC4862054:

Assays:
Test in all cases: normalised response (% of control), CellTiter-Glo; higher = more viable cells (100 = DMSO, 0 = benzethonium chloride kill control)
Conditions in all cases: incubation time: 72 h
CAL-85-1 [1] = test system: CAL-85-1
Protocol: (§1)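 DSRT, 72 h incubation, CellTox Green / CellTiter-Glo readout. Signal is normalised to DMSO and benzethonium chloride controls. Value is the normalised response at the highest dose.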

BT-549 = test system: BT-549
Protocol: as §1

MDA-MB-468 = test system: MDA-MB-468
Protocol: as §1

Hs578T = test system: Hs578T
Protocol: as §1

HCC1143 = test system: HCC1143
Protocol: as §1

DU-4475 = test system: DU-4475
Protocol: as §1

MFM-223 = test system: MFM-223
Protocol: as §1

CAL-148 = test system: CAL-148
Protocol: as §1

MDA-MB-453 = test system: MDA-MB-453
Protocol: as §1

HCC1599 [2] = test system: HCC1599
Protocol: as §1

HCC1937 = test system: HCC1937
Protocol: as §1

HDQ-P1 = test system: HDQ-P1
Protocol: as §1

BT-474 = test system: BT-474
Protocol: as §1

CAL-120 [3] = test system: CAL-120
Protocol: as §1

CAL-51 = test system: CAL-51
Protocol: as §1

SK-BR-3 = test system: SK-BR-3
Protocol: as §1

MCF-10A = test system: MCF-10A
Protocol: as §1

MDA-MB-436 = test system: MDA-MB-436
Protocol: as §1

MDA-MB-231 [4] = test system: MDA-MB-231
Protocol: as §1

CAL-85-1 [5] = test system: CAL-85-1; remark: listed apart in the source
Procedure, shortened: (§2)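 Plates were normalised with 0.1 % DMSO as 100 and a positive kill control as 0. Breast cancer cell lines in 20 µl suspension had been seeded into 384-well plates with compound at 5 concentrations in 10-fold steps over a compound-specific 10,000-fold range, incubated 72 h, and read for CellTox Green fluorescence (485/520 nm) followed by CellTiter-Glo luminescence. Each value is the normalised signal at a single concentration.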

HCC1599 [6] = test system: HCC1599; remark: listed apart in the source
Procedure, shortened: as §2

CAL-120 [7] = test system: CAL-120; remark: listed apart in the source
Procedure, shortened: as §2

MDA-MB-231 [8] = test system: MDA-MB-231; remark: listed apart in the source
Procedure, shortened: as §2

Q: Which normalised response (CAL-85-1 [1]) does the source give for C[C@@H](Oc1cc(-c2cnn(C3CCNCC3)c2)cnc1N)c1c(Cl)ccc(F)c1Cl [Crizotinib] (1000 nM) here?
A: 92.7%

Q: And the normalised response (BT-549)?
A: 93.1%

Q: What about the normalised response (MDA-MB-468) of the same compound?
A: 88.1%

Q: What about the normalised response (Hs578T) of the same compound?
A: 95.9%

Q: And the normalised response (HCC1143)?
A: 102%

Q: And the normalised response (DU-4475)?
A: 103%

Q: What about the normalised response (MFM-223) of the same compound?
A: 97.4%

Q: What about the normalised response (CAL-148) of the same compound?
A: 99.3%

Q: And the normalised response (MDA-MB-453)?
A: 92.2%

Q: What about the normalised response (HCC1599 [2]) of the same compound?
A: 100%

Q: What about the normalised response (HCC1937) of the same compound?
A: 101%

Q: What about the normalised response (HDQ-P1) of the same compound?
A: 90.7%

Q: And the normalised response (BT-474)?
A: 84.9%

Q: And the normalised response (CAL-120 [3])?
A: 104%

Q: What about the normalised response (CAL-51) of the same compound?
A: 108%

Q: And the normalised response (SK-BR-3)?
A: 104%

Q: And the normalised response (MCF-10A)?
A: 102%

Q: And the normalised response (MDA-MB-436)?
A: 102%

Q: What about the normalised response (MDA-MB-231 [4]) of the same compound?
A: 83.9%

Q: CN(C)/N=N/c1[nH]cnc1C(N)=O [Dacarbazine] (1000 nM) was tested. Which normalised response (CAL-85-1 [5]) did it give?
A: 100%

Q: What about the normalised response (HCC1599 [6]) of the same compound?
A: 111%

Q: And the normalised response (CAL-120 [7])?
A: 96%

Q: And the normalised response (MDA-MB-231 [8])?
A: 105%

Q: For Cc1ccc(-n2nc(C(C)(C)C)cc2NC(=O)Nc2ccc(OCCN3CCOCC3)c3ccccc23)cc1 [Doramapimod] (1000 nM), which normalised response (CAL-85-1 [5]) is on record?
A: 121%

Q: And the normalised response (HCC1599 [6])?
A: 108%

Q: And the normalised response (CAL-120 [7])?
A: 101%

Q: What about the normalised response (MDA-MB-231 [8]) of the same compound?
A: 83.7%

Q: What does the source list for C#Cc1cccc(Nc2ncnc3cc(OCCOC)c(OCCOC)cc23)c1 [Erlotinib] (1000 nM)?
A: normalised response (CAL-85-1 [5]): 60.2%; normalised response (HCC1599 [6]): 100%; normalised response (CAL-120 [7]): 93.5%; normalised response (MDA-MB-231 [8]): 102%

Q: Which results are given for COc1cc([C@@H]2c3cc4c(cc3[C@@H](O[C@@H]3O[C@@H]5CO[C@@H](C)O[C@H]5[C@H](O)[C@H]3O)[C@H]3COC(=O)[C@H]23)OCO4)cc(OC)c1O [Etoposide] (1000 nM)?
A: normalised response (CAL-85-1 [5]): 101%; normalised response (HCC1599 [6]): 63.5%; normalised response (CAL-120 [7]): 93.3%; normalised response (MDA-MB-231 [8]): 94.7%

Q: C[C@]12CC[C@@H]3c4ccc(O)cc4C[C@@H](CCCCCCCCC[S+]([O-])CCCC(F)(F)C(F)(F)F)[C@H]3[C@@H]1CC[C@@H]2O (some centres not stated) [Fulvestrant] (1000 nM) was tested. Which normalised response (CAL-85-1 [1]) did it give?
A: 95.4%

Q: And the normalised response (BT-549)?
A: 99.3%

Q: What about the normalised response (MDA-MB-468) of the same compound?
A: 96%

Q: What about the normalised response (Hs578T) of the same compound?
A: 103%

Q: What about the normalised response (HCC1143) of the same compound?
A: 106%

Q: And the normalised response (DU-4475)?
A: 110%

Q: What about the normalised response (MFM-223) of the same compound?
A: 99.3%

Q: And the normalised response (CAL-148)?
A: 104%

Q: And the normalised response (MDA-MB-453)?
A: 95.6%

Q: What about the normalised response (HCC1599 [2]) of the same compound?
A: 103%

Q: What about the normalised response (HCC1937) of the same compound?
A: 94%

Q: What about the normalised response (HDQ-P1) of the same compound?
A: 101%

Q: What about the normalised response (BT-474) of the same compound?
A: 99%

Q: What about the normalised response (CAL-120 [3]) of the same compound?
A: 105%

Q: And the normalised response (CAL-51)?
A: 124%

Q: And the normalised response (SK-BR-3)?
A: 104%

Q: What about the normalised response (MCF-10A) of the same compound?
A: 101%

Q: And the normalised response (MDA-MB-436)?
A: 105%

Q: And the normalised response (MDA-MB-231 [4])?
A: 98.9%

Q: Which results are given for O=P1(NCCCl)OCCCN1CCCl (configuration not stated) [Ifosfamide] (1000 nM)?
A: normalised response (CAL-85-1 [5]): 96.8%; normalised response (HCC1599 [6]): 96.1%; normalised response (CAL-120 [7]): 91.4%; normalised response (MDA-MB-231 [8]): 88.3%

Q: CC1(C)NC(=O)N(c2ccc([N+](=O)[O-])c(C(F)(F)F)c2)C1=O [Nilutamide] (1000 nM) was tested. Which normalised response (CAL-85-1 [5]) did it give?
A: 98.5%

Q: What about the normalised response (HCC1599 [6]) of the same compound?
A: 110%

Q: And the normalised response (CAL-120 [7])?
A: 102%

Q: What about the normalised response (MDA-MB-231 [8]) of the same compound?
A: 102%

Q: Which normalised response (CAL-85-1 [5]) does the source give for Cc1ccc(C(=O)Nc2ccc(CN3CCN(C)CC3)c(C(F)(F)F)c2)cc1C#Cc1cnc2cccnn12 [Ponatinib] (100 nM) here?
A: 105%

Q: What about the normalised response (HCC1599 [6]) of the same compound?
A: 117%

Q: And the normalised response (CAL-120 [7])?
A: 86.3%

Q: What about the normalised response (MDA-MB-231 [8]) of the same compound?
A: 91.4%

Q: How did the normalised response (CAL-85-1 [5]) turn out when Cn1c(Nc2ccc(C(F)(F)F)cc2)nc2cc(Oc3ccnc(-c4ncc(C(F)(F)F)[nH]4)c3)ccc21 [RAF265] (100 nM) was run?
A: 98.5%

Q: And the normalised response (HCC1599 [6])?
A: 120%

Q: What about the normalised response (CAL-120 [7]) of the same compound?
A: 82.9%

Q: What about the normalised response (MDA-MB-231 [8]) of the same compound?
A: 104%

Q: For CNCc1ccc(-c2[nH]c3cc(F)cc4c3c2CCNC4=O)cc1 [Rucaparib] (1000 nM), which normalised response (CAL-85-1 [5]) is on record?
A: 110%

Q: What about the normalised response (HCC1599 [6]) of the same compound?
A: 94.4%

Q: And the normalised response (CAL-120 [7])?
A: 105%

Q: What about the normalised response (MDA-MB-231 [8]) of the same compound?
A: 99%

Q: N[C@@H](CSC(c1ccccc1)(c1ccccc1)c1ccccc1)C(=O)O [S-trityl-L-cysteine] (4000 nM) was tested. Which normalised response (CAL-85-1 [5]) did it give?
A: 99.8%

Q: What about the normalised response (HCC1599 [6]) of the same compound?
A: 109%

Q: What about the normalised response (CAL-120 [7]) of the same compound?
A: 102%

Q: What about the normalised response (MDA-MB-231 [8]) of the same compound?
A: 105%

Q: For CN(N=O)C(=O)N[C@@H](C=O)[C@@H](O)[C@H](O)[C@H](O)CO [Streptozocin] (1000 nM), which normalised response (CAL-85-1 [5]) is on record?
A: 104%

Q: What about the normalised response (HCC1599 [6]) of the same compound?
A: 107%

Q: And the normalised response (CAL-120 [7])?
A: 105%

Q: What about the normalised response (MDA-MB-231 [8]) of the same compound?
A: 106%

Q: Which results are given for O=C1CCC(N2C(=O)c3ccccc3C2=O)C(=O)N1 (configuration not stated) [Thalidomide] (1000 nM)?
A: normalised response (CAL-85-1 [5]): 94.5%; normalised response (HCC1599 [6]): 114%; normalised response (CAL-120 [7]): 101%; normalised response (MDA-MB-231 [8]): 95.8%

Q: CN[C@@H]1C[C@H]2O[C@@](C)([C@@H]1OC)n1c3ccccc3c3c4c(c5c6ccccc6n2c5c31)C(=O)N[C@H]4O [UCN-01] (1000 nM) was tested. Which normalised response (CAL-85-1 [5]) did it give?
A: 23.2%

Q: What about the normalised response (HCC1599 [6]) of the same compound?
A: 8.97%

Q: And the normalised response (CAL-120 [7])?
A: 20.5%

Q: And the normalised response (MDA-MB-231 [8])?
A: 7.91%

Q: Clc1ccc(Nc2nnc(Cc3ccncc3)c3ccccc23)cc1 [Vatalanib] (1000 nM) was tested. Which normalised response (CAL-85-1 [5]) did it give?
A: 97.7%

Q: And the normalised response (HCC1599 [6])?
A: 124%

Q: And the normalised response (CAL-120 [7])?
A: 99.2%

Q: And the normalised response (MDA-MB-231 [8])?
A: 105%

Q: How did the normalised response (CAL-85-1 [5]) turn out when CCC1=C[C@@H]2CN(C1)Cc1c([nH]c3ccccc13)[C@@](C(=O)OC)(c1cc3c(cc1OC)N(C)[C@H]1[C@@](O)(C(=O)OC)[C@H](OC(C)=O)[C@]4(CC)C=CCN5CC[C@]31[C@@H]54)C2 [Vinorelbine] (1000 nM) was run?
A: 39%

Q: What about the normalised response (HCC1599 [6]) of the same compound?
A: 26%

Q: And the normalised response (CAL-120 [7])?
A: 66.9%

Q: And the normalised response (MDA-MB-231 [8])?
A: 43.5%

Q: How did the normalised response (CAL-85-1 [5]) turn out when Oc1nc(-c2ccc(C(F)(F)F)cc2)nc2c1CSCC2 [XAV-939] (1000 nM) was run?
A: 105%

Q: What about the normalised response (HCC1599 [6]) of the same compound?
A: 104%

Q: What about the normalised response (CAL-120 [7]) of the same compound?
A: 92%

Q: What about the normalised response (MDA-MB-231 [8]) of the same compound?
A: 76.8%
